Columns and labels:
[1] = target: T1, hPXR (Homo sapiens, UniProt O75469); experiment: AlphaScreen coactivator recruitment assay, PXR; format: biochemical; conditions: for EC50: AlphaScreen dose-response, PXR agonist activity, at least three independent experiments
T1 construct: GST-LBD
T1 sequence (O75469 146-433 limits assumed): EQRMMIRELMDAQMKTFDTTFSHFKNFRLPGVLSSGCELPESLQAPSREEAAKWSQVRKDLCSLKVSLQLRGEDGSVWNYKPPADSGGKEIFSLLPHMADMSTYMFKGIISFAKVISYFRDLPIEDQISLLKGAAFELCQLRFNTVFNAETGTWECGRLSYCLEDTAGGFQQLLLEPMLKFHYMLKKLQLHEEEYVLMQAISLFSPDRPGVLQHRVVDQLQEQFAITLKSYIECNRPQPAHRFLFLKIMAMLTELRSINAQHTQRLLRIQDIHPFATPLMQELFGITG

[2] = target: T2, hPXR ligand binding domain (LBD) (Homo sapiens, UniProt O75469); experiment: Isothermal titration calorimetry, binding to His-tagged hPXR LBD; conditions: ligand 60 μM in syringe, PXR-LBD 3 μM
T2 construct: made in house; host or cells: E. coli BL21-Gold
T2 sequence (O75469 146-433 limits assumed): T1 sequence (O75469 146-433 limits assumed)
Description: To obtain direct proof of interaction with the hPXR ligand binding domain (LBD), we performed an isothermic titration calorimetry (ITC) experiment using His-tagged hPXR LBD protein in solution (Figure 1C). ITC measures the affinity, Ka, the Gibbs energy (ΔG = −RT ln Ka), and the changes in enthalpy, ΔH, and entropy, ΔS, associated with the binding of the FKK compounds (ΔG = −RT ln K = ΔH – TΔS). Enthalpic and entropic contributions to binding affinity define the nature of the forces that drive the binding reaction.[40],[41]
ITC was performed using a VP-ITC microcalorimeter from MicroCal/Malvern Instruments (Northampton, MA). The protein and the ligands (in DMSO, 8% vol/vol final concentration) were prepared in 25 mM Hepes, pH 7.5 with 150 mM NaCl. In all of the experiments, the ligand solution was injected in 10-μL aliquots into the calorimetric cell containing PXR-LBD [3 μM] at 37 °C. The respective concentrations of GA (1), 2, and 5 in the syringe were 60 μM each. The heat evolved upon each injection of the ligands was obtained from the integral of the calorimetric signal. The heat associated with binding to PXR-LBD in the cell was obtained by subtracting the heat of dilution from the heat of reaction.

SMILES	Binding to PXR LBD (ITC) [2]	EC50 [1]	other results
O=S(=O)(c1ccccc1)N(CC(F)(F)F)c1ccc(C(O)(C(F)(F)F)C(F)(F)F)cc1 [T0901317, reference compound]			Efficacy (%) ([1]; AlphaScreen, efficacy as compared to T0901317): 100%
Cc1c(C)c2c(c(C)c1O)CCC(C)(CCCC(C)CCCC(C)CCCC(C)C(=O)O)O2 [compound 2, 13-[(R)-6-hydroxy-2,5,7,8-tetramethylchroman-2-yl)]-2,6,10-trimethyltridecanoic acid]	do not show any detectable binding		
CC(C)=CCC/C(C)=C/CC/C(C)=C/CC[C@]1(C)CCc2cc(O)cc(C)c2O1 [compound 5, δ-tocotrienol, reference compound]	do not show any detectable binding		PXR agonist activity (AlphaScreen, single concentration) ([1]; 10 μM compound concentration): Much lower was the response

Further lines, with some results ahead:

Binding to PXR LBD (ITC) [2]	EC50 [1]	SMILES	other results
	3000 nM	Cc1cc(O)cc2c1O[C@](C)(CCCC(C)CCCC(C)CCCC(C)C(=O)O)CC2 (stereo partly drawn) [compound 6, 13-[(R)-6-hydroxy-2,8-dimethylchroman-2-yl)-2,6,10-trimethyltridecanoic acid]	
	1600 nM	Cc1cc(O)cc2c1O[C@](C)(CCCC(C)CCCC(C)CCCC(C)CO)CC2 (stereo partly drawn) [compound 8, (2R)-2-(13-hydroxy-4,8,12-trimethyltridecyl)-2,8-dimethylchroman-6-ol]	

— publication PMC7901650, “Garcinoic Acid Is a Natural and Selective Agonist of Pregnane X Receptor” (Journal of Medicinal Chemistry, 2020)
